# Assay results from US12389905B2, “Synergistic mixture of plant defense inductors” (LIDA PLANT RESEARCH S.L., priority 2018, dated 2025).
# Several values for one entry are separate records, joined by “and”; a condition that tells them apart may be missing. Equal entries are not always repeated. Where two headings read alike, the source gives them in different places.
# Assays:
# Assay type in all cases: in vivo
# [1] = test system: PR1 (PATHOGENESIS-RELATED PROTEIN 1) gene; experiment: PR1 gene expression (qPCR) in sprayed Arabidopsis thaliana plants
# [2] = test system: Podosphaera xanthii on cucumber; experiment: Powdery mildew on cucumber, greenhouse disease control
# Description: (§1) The experiments were carried out under controlled greenhouse conditions. The effects of temperature, humidity and light conditions in the greenhouse chambers were adjusted according to host plants and pathogens needs.
# (§2) The efficacy or disease control value (W) was calculated according to Abbott's formula: W=(1−x/y)×100 wherein • x=percentage of fungal or bacterial infection in treated plants • y=percentage of fungal or bacterial infection in untreated control plants
# (§3) An efficacy of 0 means the infection level of the treated plants corresponds to that of the untreated control plants; and efficacy of 100 means that the treated plants are not infected.
# (§4) In order to evaluate if there is a synergistic effect between different possible combinations, Limpel/Colby's formula was used.
# (§5) Synergy Factor (F)=OV(A+B)/CEV(A+B) 1. Podosphaera xanthii on Cucumber
# 1.2-leaf stage cucumber plants (cv. Suzunari-suyo), grown in pots under controlled conditions, were treated by spraying of the leaves or by soil drenching with the mixture in question, dispersed in an aqueous solution. Plants were kept in a growth chamber at 25° C. and 80% RH. After 7 days, plants were inoculated and infected with a spore suspension of Podosphaera xanthii, and, 10 days after pathogen inoculation, infection levels were assessed and percentages of disease control and expected values were calculated according to Abbott's and Colby's formulas, respectively.
# [3] = test system: Pseudomonas syringae pv. Lachrymans on cucumber; experiment: Bacterial spot on cucumber, greenhouse disease control; conditions: spray, 100 ppm
# Description: as §1, §2, §3, §4, §5
# 1.2-leaf stage cucumber plants (cv. Suzunari-suyo), grown in pots under controlled conditions, were treated by spraying of the leaves with the mixture in question, dispersed in an aqueous solution. After 2 days, plants were inoculated and infected with an aqueous suspension of Pseudomonas syringae pv. Lachrymans (1×10^8 cfu/ml), and they were kept in a growth chamber at 25° C. and 90% RH. 7 days after pathogen inoculation, infection levels were assessed and percentages of disease control and expected values were calculated according to Abbott's and Colby's formulas, respectively.
# [4] = test system: Pyricularia oryzae on rice; conditions: soil drench
# [5] = test system: Pseudomonas cannbina pv. alisalensis on Chinese cabbage
# [6] = test system: Phakopsora pachyrhizi on soybean; experiment: Asian rust on soybean, greenhouse disease control; conditions: B alone 100 ppm, leaf spray
# Description: as §1, §2, §3
# In order to evaluate if there is a synergistic effect between different possible combinations, Limpel/Colby's formula was used. This formula is used to calculated the expected disease control value of combinations containing two active ingredients, A and B: Expected (E)=A+B−(A×B/100) wherein, • A=observed disease control value of component A, at the same concentration as used in the mixture • B=observed disease control value of component B, at the same concentration as used in the mixture
# When the disease control value found experimentally (observed) with the combination is greater than the value of E, said activity should be considered as being a synergistic effect, and Synergy Factor (F) is >1: Synergy Factor (F)=Observed disease control value/Expected disease control value (E)
# As above, in the following Tables: • OV: Observed control value • CEV: Colby expected control value with the mixture [CEV=A+B−(A×B/100)] Synergy Factor (F)=OV(A+B)/CEV(A+B) 1. Podosphaera xanthii on Cucumber
# 1.5-leaf stage soybean plants (cv. Tsurunoko-daizu), grown in pots under controlled conditions, were treated by spraying of the leaves with the mixture in question, dispersed in an aqueous solution. After 7 days, plants were inoculated and infected with a spore suspension of Phakopsora pachyrhizi(1×10^6 uredospores/ml), and they were kept in a growth chamber at 25° C. and 90% RH. 10 days after pathogen inoculation, infection levels were assessed and percentages of disease control and expected values were calculated according to Abbott's and Colby's formulas, respectively.
# [7] = test system: PDF1.2 (PLANT DEFENSIN 1.2) gene; experiment: PDF1.2 gene expression (qPCR) in sprayed Arabidopsis thaliana plants
# Description: Wild-type Arabidopsis thaliana Col-0 seeds were grown in pots under a 16 hours day/8 hours night (long day) photoperiod, with a daytime temperature of 22° C., a night temperature of 20° C., and a relative humidity of 65%. Plants were sprayed with each inductor dissolved in water (inductors alone or in combination). 24 and 48 hours after treatment (hours post treatment, hpt), tissue samples were harvested and gene expression analysis of specific defense marker genes was performed, through quantitative PCR technology (qPCR).
# The genes involved in plant defense analyzed were one or more of the following 5: • PR1 (PATHOGENESIS-RELATED PROTEIN 1). AGI code: AT2G14610 • PDF1.2 (PLANT DEFENSIN 1.2). AGI code: AT5G44420 • PR2 (PATHOGENESIS-RELATED PROTEIN 2; BETA-1,3-GLUCANASE 2). AGI code: AT3G57260 • PR5 (PATHOGENESIS-RELATED GENE 5). AGI code: AT1G75040 • ICS1 (ISO[…] 1). AGI code: AT1G74710
# UBC21 (UBIQUITIN-CONJUGATING ENZYME 21; AGI code: AT5G25760) was the normalization (or housekeeping) gene used.
# PR1 (Salicylic acid-signaling pathway marker gene) and PDF1.2 (Jasmonic acid-signaling pathway marker gene) are important marker genes of plant defense system, because they are necessary to plant defense mechanisms activation.
# In order to evaluate if there is a synergistic effect between different possible combinations, Limpel/Colby's formula was used. This formula is used to calculated the expected activity of combinations containing two active ingredients, A and B: Expected (E)=A+B−(A×B/100) Wherein, • A=observed gene activation of active component A at the same concentration as used in the mixture • B=observed gene activation of active component B at the same concentration as used in the mixture
# When the activity found experimentally (observed) is greater than the value of E, said activity should be considered as being a synergistic effect, and Synergy Factor (F) is >1: Synergy Factor (F)=Observed activity/Expected activity (E)
# In the following: • OV: Observed gene activation value • CEV: Colby expected gene activation value with the mixture [CEV=A+B−(A×B/100)] Synergy Factor (F)=OV(A+B)/CEV(A+B) • hpt: hours post treatment.
# [8] = test system: Colletotrichum orbiculare on cucumber; experiment: Anthracnose on cucumber, greenhouse disease control; conditions: spray; 100 ppm
# [9] = Test 3 (soil drench treatment), 100 ppm
# [10] = Combinations with Chitooligosaccharides
# [11] = Test 4 (spray treatment), 100 ppm
compound,measurement,setting,value
C=CCOC1=NS(=O)(=O)c2ccccc21 [Probenazole],PR1 gene activation OV A or B (single component),"[1]; 100 ppm, 48 hpt",102.9 n-fold and 102.90 n-fold
same,Percentage of disease control OV A or B (single component),[2]; [9],0%
same,Percentage of disease control OV A or B (single component),[3]; Test 2,45%
same,Percentage of disease control OV A or B (single component),[3]; Test 3,45%
same,Percentage of disease control B,"[4]; Test 3, B alone 100 ppm",71%
same,Percentage of disease control B,"[4]; Test 4, B alone 100 ppm",71%
same,Percentage of disease control OV A or B (single component),[5]; 100 ppm,25%
same,Percentage of disease control B,[5]; in vivo,25%
same,Percentage of disease control B,[6]; [10],7%
same,Percentage of disease control B,[6]; Combinations with Laminarin,7%
"O=C(O)c1ccccc1O [Salicylic acid, salicylic acid]",PR1 gene activation OV A or B (single component),"[1]; 100 ppm, 24 hpt",87.08 n-fold
same,PR1 gene activation OV A or B (single component),"[1]; 100 ppm, 48 hpt",58.77 n-fold
same,PDF1.2 gene activation OV A or B (single component),"[7]; 100 ppm, 24 hpt",12.69 n-fold
same,PDF1.2 gene activation OV A or B (single component),"[7]; 100 ppm, 48 hpt",7.80 n-fold
"N#Cc1ccccc1NC(=O)c1snc(Cl)c1Cl [Isotianil, isotianil]",PDF1.2 gene activation OV A or B (single component),"[7]; 30 ppm, 24 hpt",18.22 n-fold
same,PDF1.2 gene activation OV A or B (single component),"[7]; 30 ppm, 48 hpt",57.21 n-fold
same,Percentage of disease control OV A or B (single component),[2]; [11],10%
same,Percentage of disease control B,"[4]; Test 3, B alone 100 ppm",77%
same,Percentage of disease control B,[6]; Combinations with Carrageenan,20%
same,Percentage of disease control B,[6]; [10],20%
same,Percentage of disease control B,[6]; Combinations with Laminarin,20%
"O=C(O)c1cc(Cl)nc(Cl)c1 [2,6-Dichloroisonicotinic acid, 2,6-dichloro-isonicotinic acid]",PR1 gene activation OV A or B (single component),"[1]; 75 ppm, 24 hpt",15.45 n-fold
same,PR1 gene activation OV A or B (single component),"[1]; 75 ppm, 48 hpt",26.64 n-fold
same,PDF1.2 gene activation OV A or B (single component),"[7]; 75 ppm, 24 hpt",5.13 n-fold
same,PDF1.2 gene activation OV A or B (single component),"[7]; 75 ppm, 48 hpt",1.68 n-fold
same,Percentage of disease control OV A or B (single component),[5]; 300 ppm,83%
same,Percentage of disease control B,[5]; in vivo,83%
O=S1(=O)N=C(OCc2snc(Cl)c2Cl)c2ccccc21 [Dichlobentiazox],Percentage of disease control OV A or B (single component),[2]; [9],0%
same,Percentage of disease control OV A or B (single component),[5]; 100 ppm,0%
same,Percentage of disease control B,[5]; in vivo,0%
same,Percentage of disease control B,[6]; [10],53%
"Cc1ncc(C[n+]2csc(CCO)c2C)c(N)n1 [Vitamin B1, vitamin B1]",PR1 gene activation OV A or B (single component),"[1]; 8000 ppm, 24 hpt",8.35 n-fold
same,PDF1.2 gene activation OV A or B (single component),"[7]; 8000 ppm, 24 hpt",231.82 n-fold
same,PDF1.2 gene activation OV A or B (single component),"[7]; 8000 ppm, 48 hpt",319.68 n-fold
"CC(N)CC(=O)O (stereo not drawn) [Beta-Aminobutyric acid, beta-aminobutyric acid]",PR1 gene activation OV A or B (single component),"[1]; 100 ppm, 24 hpt",2.53 n-fold
same,PR1 gene activation OV A or B (single component),"[1]; 100 ppm, 48 hpt",8.50 n-fold
same,PDF1.2 gene activation OV A or B (single component),"[7]; 100 ppm, 48 hpt",4.37 n-fold
same,Percentage of disease control OV A or B (single component),"[2]; Test 4 (spray treatment), 300 ppm",20%
same,Percentage of disease control B,"[4]; Test 3, B alone 300 ppm",0%
same,Percentage of disease control B,[5]; in vivo,46%
same,Percentage of disease control B,[6]; [10],0%
"CC/C=C\CC1C(=O)CCC1CC(=O)OC (centres unmarked) [Methyl jasmonate, methyl jasmonate]",PR1 gene activation OV A or B (single component),"[1]; 600 ppm, 24 hpt",1.10 n-fold
same,PR1 gene activation OV A or B (single component),"[1]; 600 ppm, 48 hpt",36.36 n-fold
same,PDF1.2 gene activation OV A or B (single component),"[7]; 600 ppm, 24 hpt",6.93 n-fold
"CSC(=O)c1cccc2nnsc12 [Acibenzolar-S-methyl, acibenzolar-S-methyl]",PR1 gene activation OV A or B (single component),"[1]; 37.5 ppm, 24 hpt",32.19 n-fold
same,PR1 gene activation OV A or B (single component),"[1]; 37.5 ppm, 48 hpt",72.31 n-fold
same,Percentage of disease control OV A or B (single component),[3]; Test 4,86%
same,Percentage of disease control B,"[4]; Test 2, B alone 4 ppm",29%
same,Percentage of disease control B,"[4]; Test 2, B alone 10 ppm",49%
same,Percentage of disease control B,"[4]; Test 2, B alone 20 ppm",87%
same,Percentage of disease control B,"[4]; Test 2, B alone 40 ppm",83%
same,Percentage of disease control B,"[4]; Test 2, B alone 100 ppm",70%
same,Percentage of disease control B,"[4]; Test 3, B alone 100 ppm",71%
same,Percentage of disease control B,"[4]; Test 4, B alone 100 ppm",71%
same,Percentage of disease control B,"[5]; Combinations with Carrageenan, Test 1, B alone 100 ppm, leaf spray",85%
same,Percentage of disease control B,"[5]; Combinations with Chitooligosaccharides, Test 2, B alone 4 ppm, leaf spray",5%
same,Percentage of disease control B,"[5]; Combinations with Chitooligosaccharides, Test 2, B alone 10 ppm, leaf spray",18%
same,Percentage of disease control B,"[5]; Combinations with Chitooligosaccharides, Test 2, B alone 20 ppm, leaf spray",12%
same,Percentage of disease control B,"[5]; Combinations with Chitooligosaccharides, Test 2, B alone 40 ppm, leaf spray",84%
same,Percentage of disease control B,"[5]; Combinations with Chitooligosaccharides, Test 2, B alone 100 ppm, leaf spray",89%
same,Percentage of disease control B,"[5]; Combinations with Chitooligosaccharides, Test 3, B alone 10 ppm, leaf spray",35%
same,Percentage of disease control B,"[5]; Combinations with Chitooligosaccharides, Test 3, B alone 20 ppm, leaf spray",17%
same,Percentage of disease control B,"[5]; Combinations with Chitooligosaccharides, Test 3, B alone 40 ppm, leaf spray",95%
same,Percentage of disease control B,"[5]; Combinations with Chitooligosaccharides, Test 3, B alone 100 ppm, leaf spray",98%
same,Percentage of disease control OV A or B (single component),[8],92%
"O=C(O)CCCCCCCC(=O)O [Azelaic acid, azelaic acid]",PDF1.2 gene activation OV A or B (single component),"[7]; 200 ppm, 24 hpt",331.01 n-fold
same,PDF1.2 gene activation OV A or B (single component),"[7]; 200 ppm, 48 hpt",87.56 n-fold
Flagellin,PR1 gene activation OV A or B (single component),"[1]; 2.3 ppm, 24 hpt",2.05 n-fold
same,PR1 gene activation OV A or B (single component),"[1]; 2.3 ppm, 48 hpt",5.89 n-fold
same,PDF1.2 gene activation OV A or B (single component),"[7]; 2.3 ppm, 24 hpt",1.44 n-fold
same,PDF1.2 gene activation OV A or B (single component),"[7]; 2.3 ppm, 48 hpt",0.94 n-fold
"2-amino-3,5-dichlorobenzoic acid (3,5-dichloroanthranilic acid)",PR1 gene activation OV A or B (single component),"[1]; 25 ppm, 24 hpt",4.61 n-fold
same,PR1 gene activation OV A or B (single component),"[1]; 25 ppm, 48 hpt",4.14 n-fold
same,PDF1.2 gene activation OV A or B (single component),"[7]; 25 ppm, 48 hpt",5.70 n-fold
"Cc1ccc(NC(=O)c2snnc2C)cc1Cl [Tiadinil, tiadinil]",PDF1.2 gene activation OV A or B (single component),"[7]; 45 ppm, 24 hpt",189.33 n-fold
same,Percentage of disease control OV A or B (single component),[2]; [11],0%
same,Percentage of disease control B,"[4]; Test 3, B alone 100 ppm",80%
